The subject of one experiment is MIN6 cells. Nature of the experiment: active GLP-1 secretion in MIN6 cells. Format: cell-based, mouse. The following applies: Fig 1H. On the procedure:
Endocrine differentiation was induced by seeding NCI-H716 cells in plates coated with Matrigel (Becton Dickinson). Cells were washed with RPMI-1640 medium without FBS and incubated in the same medium containing indicated compounds at 10 μmol/l. The condition medium was collected after 30 min. GLP-1 secretion in MIN6 or primary enterocytes was conducted similarly. To isolate primary enterocytes, ileum or colon was cut into 2 cm length, rinsed by PBS (pH7.2∼7.4) before dispersed in 10 mmol/l EDTA/PBS (pH7.4) for 15 min at room temperature, followed by pipetting up and down. Enterocytes were collected by filtration through a 70 μm cell strainer. To study the effect of WB403 on GLP-1 secretion in vivo, mice in group of three were fasted overnight and orally received 0, 50, 100 mg/kg of WB403 dispersed in 0.5% CMC with a DPP-4 inhibitor (5 mg/kg). There were 5 animals in each group. 2 g/kg glucose was administrated 30 min later and blood was collected 10 min after glucose challenge.
The GLP-1 (active) ELISA kit was purchased from Millipore, and insulin ELISA kit was from Mercodia. For quantitative determination of cAMP, a competitive enzyme immunoassay kit from R&D system was used. All immunoassays were performed according to manufacturers’ instructions.

In a further experiment the test system is HFD/STZ mice. Briefly: 8-week treatment of HFD/STZ mice. It is filed as in vivo. On the procedure:
For generation of nongenetic mice model of type 2 diabetes, ICR mice were fed with high fat diet (HFD, with 60% fat, Research Diets) for three weeks, then fasted for 5 h before receiving a single dose of streptozotocin (STZ, Sigma) intraperitoneally (ip) at 80 mg/kg to induce partial insulin deficiency. […] Diabetes was assessed using conventional criteria. Mice with similar degree of hyperglycemia and body weight were randomized into various groups in order to get a similar average PBG in each group.
Diabetic mice in group of four were treated by gavage with vehicle (0.5% carboxymethylcellulose, CMC, Sigma), WB403 50, 100 mg/kg or sitagliptin at 100 mg/kg daily for 4 weeks in db/db mice (n = 5 with chow diet), and 8 weeks in HFD/STZ mice (n = 8 with HFD, additional normal mice group with chow diet). During the entire dosing period, body weight, food intake and water intake were monitored three times per week, while FBG and PBG were measured weekly. Overnight fasted mice received an oral glucose challenge at 2 g/kg and postprandial 2 h blood glucose was measured. Animals were treated and assessed in the order of the vehicle, WB403 50, 100 mg/kg and sitagliptin 100 mg/kg group.
Fig 4 WB403 improved hyperglycemia of HFD/STZ mice. Mice were treated with different concentration of WB403, vehicle or sitagliptin. FBG (A) and PBG (B) were measured every week during the 8-week treatment period. (C, D) HbA1c levels in serum. Values are mean ± SEM (n = 8). *p<0.05, **p<0.01, ***p<0.001 vs. vehicle group.

The target in another experiment is T1, hGPR119 (Homo sapiens, UniProt Q8TDV5).
T1 construct: host or cells: 293T cells, transient transfection with pGPR119
T1 sequence (Q8TDV5 1-335): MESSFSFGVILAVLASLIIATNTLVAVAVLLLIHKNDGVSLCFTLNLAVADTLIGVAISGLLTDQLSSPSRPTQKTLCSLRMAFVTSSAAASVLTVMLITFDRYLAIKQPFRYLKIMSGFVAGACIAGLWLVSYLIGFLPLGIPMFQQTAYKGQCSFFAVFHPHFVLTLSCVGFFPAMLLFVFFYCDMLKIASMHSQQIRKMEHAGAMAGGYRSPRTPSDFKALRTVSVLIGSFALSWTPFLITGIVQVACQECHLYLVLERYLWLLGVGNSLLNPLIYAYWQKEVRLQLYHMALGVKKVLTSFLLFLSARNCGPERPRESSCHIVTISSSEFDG
Nature of the experiment: GPR119-dependent cAMP accumulation in transfected 293T cells. Format: cell-based. The following applies: 10, 20 μmol/l. On the procedure: For human TGR5 luciferase (luc) assay, 293T cells were co-transfected with pCRE-luc, pTGR5 (kind gift from Prof. Johan Auwerx, Ecole Polytechnique Fédérale de Lausanne, Lausanne, Switzerland) and pRenilla (Promega, USA). WB403 was added 5 h later. Cells were harvested after 16 h and subjected to luciferase analysis on Lumistar Optima chemiluminescent detector (BMG labtech, Germany). For cAMP testing, 293T cells transiently transfected with pTGR5 or pGPR119 (GeneCopoeia, USA) were washed by FBS-free DMEM, and stimulated with WB403 in FBS-free DMEM containing 3-isobutyl-1-methyl-xanthine (IBMX, Sigma). Cell lysates were collected 30 min later and used for cAMP ELISA assay. FLIPR Calcium 5 assay kit (Molecular Devices, USA) was used for calcium mobilization assay. 293-GPR40 stable cells (kindly provided by Prof. Naiming Zhou of Zhejiang University, Hanzhou, China) or 293 cells transient transfected with GPR120 were seeded at 50,000 cells per well in black-walled clear-bottomed 96-well plates (Costar). […] Increase of the intracellular Ca^2+ concentration was monitored by Flexstation 3 system (Molecular Devices, USA).
The GLP-1 (active) ELISA kit was purchased from Millipore, and insulin ELISA kit was from Mercodia. For quantitative determination of cAMP, a competitive enzyme immunoassay kit from R&D system was used. […]

Setting [1] is: HFD/STZ mice, 50, 100 mg/kg daily, from first week through 8-week treatment.

The values below come from publication PMC4514850, “A Novel TGR5 Activator WB403 Promotes GLP-1 Secretion and Preserves Pancreatic β-Cells in Type 2 Diabetic Mice” (PLoS ONE, 2015).

Structures are written as SMILES. “Also recorded” adds a separate entry of the source.

On to `CCc1cc(-c2nc(C)c(COCc3ccc(Br)cc3)s2)ccn1` [WB403, 4-(5-((4-bromobenzyloxy)-methyl)-4-methylthiazol-2-yl)-2-ethylpyridine], for which, in the experiment with MIN6 cells, the “GLP-1 stimulation in MIN6 cells” value is “GLP-1 stimulation effect of WB403 was confirmed”. In addition, the “serum HbA1c levels vs vehicle” value with HFD/STZ mice (HFD/STZ mice, 8-week treatment) was “decreased significantly”. Moreover, in the experiment with HFD/STZ mice (setting [1]), the FBG vs vehicle entry is reported as “significantly decreased” and the PBG vs vehicle entry is recorded as “significantly decreased”. Moreover, the “hGPR119 dependent cAMP accumulation” value on hGPR119 was “did not show significant stimulation activity; also recorded: no significant stimulation effect”.
